Measured values published in patent US6472391B2, “Nitrogen-containing heterocyclic compounds” (Millennium Pharmaceuticals, Inc., priority 1996, dated 2002).

Row | melting point [°C] | Structure (SMILES)
1 | 129 to 132 | COc1cc2ncnc(N3CCN(C(=S)Nc4ccc(I)cc4)CC3)c2cc1OC [Compound 47, 4-(6,7-Dimethoxy-4-quinazolinyl)-N-(4-iodophenyl)-1-piperazinethiocarboxamide]
2 | 150 to 152 | Cl.Cl.S=C(NCc1cccnc1)N1CCN(c2ncnc3cccc(Cl)c23)CC1
3 | 188 to 189 | COc1cc2ncnc(N3CCN(C(=O)NCc4cccnc4)CC3)c2cc1OC [Compound 266, 4-(6,7-Dimethoxy-4-quinazolinyl)-N-(3-picolyl)-1-piperazinecarboxamide]
4 | 75 to 79 | S=C(NCc1ccccc1)N1CCN(c2ccnc3ccccc23)CC1 [Compound 395, N-Benzyl-4-(4-quinolyl)-1-piperazinethiocarboxamide]
5 | 221 to 223 | COc1ccc(NC(=O)N2CCN(c3ncnc4cc(OC)c(OC)cc34)CC2)cc1 [Compound 56, 4-(6,7-Dimethoxy-4-quinazolinyl)-N-(4-methoxyphenyl)-1-piperazinecarboxamide]
6 | 134 to 136 | CCCCn1c(=O)n(CCCC)c2cc3c(N4CCN(C(=O)Nc5ccc(Oc6ccccc6)cc5)CC4)ncnc3cc21 [Compound 390, 4-(1,3-Dibutyl-1,3-dihydro-2-oxo-2H-imidazo[4,5-g]quinazolin-8-yl)-N-(4-phenoxyphenyl)-1-piperazinecarboxamide]
7 | 68 to 70 | COc1ccc2ncnc(N3CCN(C(=S)NCc4ccccc4)CC3)c2c1 [Compound 309, N-Benzyl-4-(6-methoxy-4-quinazolinyl)-1-piperazinethiocarboxamide]
8 | 243 to 245 | COc1cc2ncnc(N3CCN(C(=O)Nc4ccc(F)c([N+](=O)[O-])c4)CC3)c2cc1OC [Compound 81, 4-(6,7-Dimethoxy-4-quinazolinyl)-N-(4-fluoro-3-nitrophenyl)-1-piperazinecarboxamide]
9 | 222 to 223 | COc1cc2ncnc(N3CCN(C(=S)Nc4ccc(C(=O)c5ccccc5)cc4)CC3)c2cc1OC [Compound 88, N-(4-Benzoylphenyl)-4-(6,7-dimethoxy-4-quinazolinyl)-1-piperazinethiocarboxamide]
10 | 197 to 198 | Cc1ccc2nc(C(F)(F)F)cc(N3CCN(C(=O)Nc4ccc(Oc5ccccc5)cc4)CC3)c2c1[N+](=O)[O-] [Compound 413, 4-(6-Methyl-5-nitro-2-trifluoromethyl-4-quinolyl)-N-(4-phenoxyphenyl)-1-piperazinecarboxamide]
11 | 247 to 248 | COc1cc2ccnc(N3CCN(C(=O)Nc4ccc([N+](=O)[O-])cc4)CC3)c2cc1OC [Compound 113, 4-(6,7-Dimethoxy-1-isoquinolyl)-N-(4-nitrophenyl)-1-piperazinecarboxamide]
12 | 171 to 173 | CCCCc1ccc(NC(=S)N2CCN(c3ncnc4cc(OC)c(OC)cc34)CC2)cc1 [Compound 21, N-(4-Butylphenyl)-4-(6,7-dimethoxy-4-quinazolinyl)-1-piperazinethiocarboxamide]
13 | 139 to 140 | CC(C)c1ccc(NC(=O)N2CCN(c3ncnc4ccc(F)cc34)CC2)cc1 [Compound 296, 4-(6-Fluoro-4-quinazolinyl)-N-(4-isopropylphenyl)-1-piperazinecarboxamide]
14 | 194 to 195 | COc1cc2ncnc(N3CCN(C(=S)Nc4ccc(C(C)C)cc4)CC3)c2cc1OC [Compound 152, 4-(6,7-Dimethoxy-4-quinazolinyl)-N-(4-isopropylphenyl)-1-piperazinethiocarboxamide]
15 | 170 to 172 | Fc1ccc2ncnc(N3CCN(C(=S)NCc4cccnc4)CC3)c2c1 [Compound 299, 4-(6-Fluoro-4-quinazolinyl)-N-(3-picolyl)-1-piperazinethiocarboxamide]
16 | 253 to 255 | COc1cc2ncnc(N3CCN(C(=O)Nc4ccc(Cl)c([N+](=O)[O-])c4)CC3)c2cc1OC [Compound 83, N-(4-Chloro-3-nitrophenyl)-4-(6,7-dimethoxy-4-quinazolinyl)-1-piperazinecarboxamide]
17 | 93 to 94 | COc1cc2ncnc(N3CCN(C(=S)NCC(c4ccccc4)c4ccccc4)CC3)c2cc1OC [Compound 11, 4-(6,7-Dimethoxy-4-quinazolinyl)-N-(2,2-diphenylethyl)-1-piperazinethiocarboxamide]
18 | 178 to 179 | COc1cc2ccnc(N3CCN(C(=O)Nc4ccc(Oc5ccccc5)cc4)CC3)c2cc1OC [Compound 423, 4-(6,7-Dimethoxy-1-isoquinolyl)-N-(4-phenoxyphenyl)-1-piperazinecarboxamide]
19 | 230 to 232 | COc1cc2ncnc(N3CCN(C(=S)Nc4ccccc4)CC3)c2cc1OC [Compound 2, 4-(6,7-Dimethoxy-4-quinazolinyl)-N-phenyl-1-piperazinethiocarboxamide]
20 | 217 to 218 | COc1cc2ncnc(N3CCN(C(=S)NCc4ccc(F)cc4)CC3)c2cc1OC [Compound 173, 4-(6,7-Dimethoxy-4-quinazolinyl)-N-(4-fluorobenzyl)-1-piperazinethiocarboxamide]
21 | 122 to 123 | COc1cc2ncnc(N3CCN(C(=O)Nc4ccc(CN5CCCCC5)cc4)CC3)c2cc1OC [Compound 100, 4-(6,7-Dimethoxy-4-quinazolinyl)-N-[4-(piperidinomethyl)phenyl]-1-piperazinecarboxamide]

Row | melting point [°C] | Structure (SMILES)
22 | 147 to 148 | CCN(CC)c1ccc(NC(=S)N2CCN(c3ncnc4cc(OC)c(OC)cc34)CC2)cc1 [Compound 72, N-(4-Diethylaminophenyl)-4-(6,7-dimethoxy-4-quinazolinyl)-1-piperazinethiocarboxamide]
23 | 168 to 170 | COc1cc2ncnc(N3CCN(C(=O)NCc4ccco4)CC3)c2cc1OC [Compound 256, 4-(6,7-Dimethoxy-4-quinazolinyl)-N-furfuryl-1-piperazinecarboxamide]
24 | 146 to 147 | COc1cccc(CNC(=S)N2CCN(c3ncnc4cc(OC)c(OC)cc34)CC2)c1 [Compound 197, 4-(6,7-Dimethoxy-4-quinazolinyl)-N-(3-methoxybenzyl)-1-piperazinethiocarboxamide]
25 | 117 to 119 | COc1cc2ncnc(N3CCN(C(=S)Nc4ccc(C(F)(F)F)cc4)CC3)c2cc1OC [Compound 159, 4-(6,7-Dimethoxy-4-quinazolinyl)-N-(4-trifluoromethylphenyl)-1-piperazinethiocarboxamide]
26 | 254 to 256 | COc1cc2ncnc(N3CCN(C(=O)Nc4ccc(N5CCOCC5)cc4)CC3)c2cc1OC [Compound 117, 4-(6,7-Dimethoxy-4-quinazolinyl)-N-(4-morpholinophenyl)-1-piperazinecarboxamide]
27 | 174 to 175 | COc1cc2ncnc(N3CCN(C(=O)NCCc4ccc(Br)cc4)CC3)c2cc1OC [Compound 120, N-[2-(4-Bromophenyl)ethyl]-4-(6,7-dimethoxy-4-quinazolinyl)-1-piperazinecarboxamide]
28 | 195 to 197 | COc1cc2ccnc(N3CCN(C(=S)NCc4cccnc4)CC3)c2cc1OC.Cl.Cl
29 | 183 to 185 | Cl.Cl.S=C(NCc1cccnc1)N1CCN(c2ccnc3ccccc23)CC1
30 | 207 to 208 | CC(=O)c1ccc(NC(=O)N2CCN(c3ncnc4ccc(Cl)cc34)CC2)cc1 [Compound 302, N-(4-Acetylphenyl)-4-(6-chloro-4-quinazolinyl)-1-piperazinecarboxamide]
31 | 202 to 207 | COc1cc2ncnc(N3CCN(C(=O)Nc4c(Cl)cccc4Cl)CC3)c2cc1OC [Compound 52, N-(2,6-Dichlorophenyl)-4-(6,7-dimethoxy-4-quinazolinyl)-1-piperazinecarboxamide]
32 | 187 to 188 | S=C(NCc1ccccc1)N1CCN(c2ncnc3cc4ccccc4cc23)CC1 [Compound 365, 4-(4-Benzo[g]quinazolinyl)-N-benzyl-1-piperazinethiocarboxamide]
33 | 192 to 193 | CC(C)c1ccc(NC(=O)N2CCN(c3ncnc4ccc(Cl)cc34)CC2)cc1 [Compound 300, 4-(6-Chloro-4-quinazolinyl)-N-(4-isopropylphenyl)-1-piperazinecarboxamide]
34 | 113 to 116 | COC(=O)c1scc(C)c1NC(=S)N1CCN(c2ncnc3cc(OC)c(OC)cc23)CC1 [Compound 261, 4-(6,7-Dimethoxy-4-quinazolinyl)-N-(2-methoxycarbonyl-4-methyl-3-thienyl)-1-piperazinethiocarboxamide]
35 | 206 to 207 | O=C(Nc1ccc(Oc2ccccc2)cc1)N1CCN(c2ncnc3cc4c(cc23)OCO4)CC1 [Compound 367, 4-(6,7-Methylenedioxy-4-quinazolinyl)-N-(4-phenoxyphenyl)-1-piperazinecarboxamide]
36 | 214 to 216 | C=Cc1ccc(NC(=O)N2CCN(c3ncnc4cc(OC)c(OC)cc34)CC2)cc1 [Compound 164, 4-(6,7-Dimethoxy-4-quinazolinyl)-N-(4-vinylphenyl)-1-piperazinecarboxamide]
37 | 106 to 109 | CCC[C@H]1CC[C@H](c2ccc(NC(=S)N3CCN(c4ncnc5cc(OC)c(OC)cc45)CC3)cc2)CC1 [Compound 169, 4-(6,7-Dimethoxy-4-quinazolinyl)-N-[trans-4-(4-propylcyclohexyl)phenyl]-1-piperazinethiocarboxamide]
38 | 98 to 100 | COc1cc2ncnc(N3CCN(C(=S)N[C@@H](C)c4ccccc4)CC3)c2cc1OC [Compound 129, (S)-4-(6,7-Dimethoxy-4-quinazolinyl)-N-(1-phenylethyl)-1-piperazinethiocarboxamide]
39 | 214 to 215 | O=C(Nc1ccc(Oc2ccccc2)cc1)N1CCN(c2ccnc3c(C(F)(F)F)cccc23)CC1 [Compound 411, N-(4-Phenoxyphenyl)-4-(8-trifluoromethyl-4-quinolyl)-1-piperazinecarboxamide]
40 | 146 to 148 | O=C(Nc1ccc(Oc2ccccc2)cc1)N1CCN(c2ncnc3cc([N+](=O)[O-])ccc23)CC1 [Compound 322, 4-(7-Nitro-4-quinazolinyl)-N-(4-phenoxyphenyl)-1-piperazinecarboxamide]
41 | 112 to 114 | COc1cc2ncnc(N3CCN(C(=S)NCCCCc4ccccc4)CC3)c2cc1OC [Compound 7, 4-(6,7-Dimethoxy-4-quinazolinyl)-N-(4-phenylbutyl)-1-piperazinethiocarboxamide]
